The experiment addresses FadD17 (Rv3506) (Mycobacterium tuberculosis, UniProt O53551).

Sequence of FadD17 (Rv3506) (O53551 whole entry): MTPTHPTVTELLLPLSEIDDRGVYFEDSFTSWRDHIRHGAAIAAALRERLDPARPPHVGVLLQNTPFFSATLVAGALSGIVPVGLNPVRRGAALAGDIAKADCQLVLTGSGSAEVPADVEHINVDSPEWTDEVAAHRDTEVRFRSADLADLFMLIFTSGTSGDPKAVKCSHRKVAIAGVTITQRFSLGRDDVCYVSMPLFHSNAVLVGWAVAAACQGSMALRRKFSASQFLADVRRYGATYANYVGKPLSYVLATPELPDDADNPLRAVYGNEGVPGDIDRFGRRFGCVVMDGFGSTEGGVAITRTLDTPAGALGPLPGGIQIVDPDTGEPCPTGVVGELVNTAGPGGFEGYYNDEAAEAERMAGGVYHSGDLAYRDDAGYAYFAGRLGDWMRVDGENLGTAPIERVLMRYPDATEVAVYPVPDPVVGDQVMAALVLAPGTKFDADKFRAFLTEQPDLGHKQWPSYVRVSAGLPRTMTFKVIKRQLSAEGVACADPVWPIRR

Take `C[C@H](/C=C/C(=O)O)[C@H]1CC[C@H]2[C@@H]3CCC4=CC(=O)CC[C@]4(C)[C@H]3CC[C@]12C` [3-OCDO-acid]: the “preparative CoA ligation, HPLC” value is given as 3-OCDO-CoA was then synthesized enzymatically from the 3-OCDO-acid using the steroid-CoA ligase FadD17.

Values taken from PMC7745731 (ACS infectious diseases, 2020).
